Reference: patent US20210386779A1, “COMPOSITIONS AND METHODS FOR DIETARY ENHANCEMENT OF IMMUNE SYSTEM FUNCTION” (priority 2020, published 2021)

Legend:
[1] = Supplement-specific monitoring for side effects and toxicity over the study period; design: species or system human; conditions: in vivo, po
Text: Monitoring tor such side effects is expected to continue over and beyond the period of quina bark extract administration.
It appears to be appropriate to continue monitoring for oncological side effects over and beyond the period of quercetin administration.

[2] = biological target: SARS-CoV-2 viral S-spike binding to cells (UniProt P0DTC2+Q9BYF1); conditions: supercomputer docking; cited from earlier work
[3] = system: COVID-19 and other flu-like illnesses (SARS-CoV-2); experiment: 20-week clinical study: test group taking the core formulations monitored for symptoms of flu-like illness, with focus on COVID-19; assay type: in vivo, human; conditions: for prophylactic efficacy against COVID-19 and other flu-like illnesses (conclusion in words): 20-week study; for symptomatic control group subjects (of 12) who had maintained supplementation with this component alone, without other core formulation components: 20 weeks, vitamin C 500-1000 mg daily, vitamin D3 1000-2000 IU daily
Text: From late February/early March 2020, we recommended to patients seen in-office (and to numerous telemedicine patients) and to our staff members to follow a regimen of at least the core formulations. Of in-office patients and staff, 54 subjects started with the study's voluntary OTC regimen and, thereby, constituted the study test group (reduced to 53 subjects after the second study week by a voluntary withdrawal); while 60 declined the regimen—for reasons, when given, involving implementation's complexity and/or effort; and/or indicating barriers to implementation stemming from educational and/or socio-economic background—and constituted the study control group.
Over the study period, we monitored subjects for symptoms of flu-like illness, with an active focus on COVID-19. At the outset of the pandemic, our practice's access to COVID-19 testing was quite limited. At that point, we identified subjects as confirmed COVID-19 cases or, at least, as likely COVID-19 cases upon their earliest presentation of clinical symptoms of COVID-19; or upon their being test-confirmed as COVID cases as documented in locales and practices where testing was available. Asymptomatic/pre-symptomatic subjects—with special note taken of documented, self-reported or likely exposure to diagnosed or suspected COVID-19 cases—as well as subjects presenting symptoms of unspecified flu-like illnesses, were followed for subsequent development of COVID-19 symptoms. As testing became more available, the state/regional protocols were such that we would receive notification of individual ones among our subjects having tested positive, the testing generally conducted by a subject's primary care provider, and the notifications then sent by Ohio health agencies to all the infected patient's physicians.
One dose daily of the full core formulation regimen, as per Table 2.
Over the study period of 20+ weeks, we monitored 113 subjects (104 in-office patients and 9 staff members) for clinical symptoms of flu-like illnesses, with subsequent differential diagnosis (and, when available, with test-confirmation) of each symptomatic subject to distinguish COVID-19 from non-COVID-19 flu-like illness. We also maintained data of reported and/or observed subject exposures to clinical and/or test-confirmed cases of COVID-19.
The OTC regimen undertaken by test group subjects included the core formulations of zinc, zinc ionophores, vitamins and l-lysine, as well as at least some of the methods. […]

Compound | complications, side effects or toxicity observed over the study period [1] | rank for inhibition of SARS-CoV-2 viral S-spike binding to cells among FDA-approved compounds [2] | prophylactic efficacy against COVID-19 and other flu-like illnesses (conclusion in words) [3] | symptomatic control group subjects (of 12) who had maintained supplementation with this component alone, without other core formulation components [3]
O=c1c(O)c(-c2ccc(O)c(O)c2)oc2cc(O)cc(O)c12 [quercetin] | received no reports nor found any clinical signs of quercetin toxicity | fifth out of twenty top performers | – | –
O=C1O[C@H]([C@@H](O)CO)C(O)=C1O [vitamin C] | – | – | relative lack of anti-flu/anti-COVID-19 prophylactic efficacy | at least four
C=C1CC[C@H](O)C/C1=C/C=C1\CCC[C@]2(C)[C@@H]([C@H](C)CCCC(C)C)CC[C@@H]12 [vitamin D3] | – | – | relative lack of anti-flu/anti-COVID-19 prophylactic efficacy | at least three
